Assay results taken from patent US20060052409A1, “Therapeutic or preventive agent for nausea/vomiting” (priority 2002, published 2006).

What was measured:
[1] = test system: nausea and vomiting due to morphine; conditions: literature report; cited from earlier work
[2] = test system: morphine-induced nausea and vomiting; assay: Morphine-induced nausea and vomiting in beagles; assay type: in vivo; conditions: male beagles; for Anti-emetic effect of test compounds: dose at which the test compounds inhibited nausea and vomiting due to morphine: test compound i.v. 15 minutes before morphine 0.5 mg/kg i.v., observed for ten minutes
Description: Male beagles were used for the experiment. Frequencies of nausea and vomiting were visually observed for ten minutes after the administration of morphine.
Morphine (0.5 mg/kg) was intravenously administered into the foreleg of male beagles. […] The test compounds were intravenously administered into the foreleg 15 minutes before the administration of morphine.

[3] = test system: morphine-induced nausea and vomiting; assay: Morphine-induced nausea and vomiting in ferrets; assay type: in vivo; conditions: male ferrets; morphine 0.1-3 mg/kg s.c.; observed for one hour
Description: Male ferrets were used for the experiment. Frequencies of nausea and vomiting were visually observed from immediately after the administration of morphine to one hour after the administration.
Morphine (0.1-3 mg/kg) was subcutaneously administered to male ferrets. […] The inhibitory effects of NTI on nausea and vomiting due to morphine were then studied. NTI (5 mg/kg) was subcutaneously administered 30 minutes before the administration of morphine (0.6 mg/kg).

Row | SMILES | Anti-emetic effect of test compounds: dose at which the test compounds inhibited nausea and vomiting due to morphine [2] | also measured
1 | C=CCN1CC[C@]23c4c5ccc(O)c4O[C@H]2C(=O)CC[C@@]3(O)[C@H]1C5 [naloxone] | – | Anti-emetic effect against nausea and vomiting due to morphine [1]: shows anti-emetic effects
2 | Cc1c2c(nc3ccccc13)[C@@H]1Oc3c(O)ccc4c3C13CCN(CC1CC1)[C@H](C4)[C@]3(O)C2 [Compound 6, 17-(cyclopropylmethyl)-6,7-didehydro-4,5α-epoxy-3,14β-dihydroxy-6,7-2′,3′-(4′-methylquinolino)morphinan] | 3.0 mg/kg | –
3 | CN1CC[C@]23c4c5ccc(O)c4O[C@H]2[C@@H](O)C=C[C@H]3[C@H]1C5 [Morphine, morphine, reference compound] | – | Induction of nausea and vomiting [3]: remarkably induced at lower doses; Induction of nausea and vomiting ([2]; morphine 0.5 mg/kg i.v.): remarkably induced within 5 minutes
4 | Oc1ccc2c3c1O[C@H]1c4c(c5cc(F)cc6c5n4CCC6)C[C@@]4(O)[C@@H](C2)N(CC2CC2)CCC314 [Compound 3, 17-(cyclopropylmethyl)-6,7-didehydro-4,5α-epoxy-3,14β-dihydroxy-1′,7′-trimethylene-5′-fluoro-6,7-2′,3′-indolomorphinan] | 1.0 mg/kg | –
5 | O=C1/C(=C/c2ccccc2)C[C@@]2(O)[C@H]3Cc4ccc(O)c5c4[C@@]2(CCN3CC2CC2)[C@H]1O5 [Compound 7, 7-benzylidene-17-(cyclopropylmethyl)-4,5α-epoxy-3,14β-dihydroxy-6-oxomorphinan] | 1.0 mg/kg | –
6 | C=CCN(CC=C)[C@@H](Cc1ccc(O)cc1)C(=O)NCC(=O)NCCS[C@@H](Cc1ccccc1)C(=O)N[C@@H](CC(C)C)C(=O)O [ICI-154129] | – | Anti-emetic effect against nausea and vomiting due to morphine [1]: cannot inhibit vomiting due to morphine
7 | Oc1ccc2c3c1O[C@H]1c4nc5ccccc5cc4C[C@@]4(O)[C@@H](C2)N(CC2CC2)CCC314 [Compound 5, 17-(cyclopropylmethyl)-6,7-didehydro-4,5α-epoxy-3,14β-dihydroxy-6,7-2′,3′-quinolinomorphinan] | 1.0 mg/kg | –
8 | Cn1c2c(c3ccc4c(c31)CCCC4)C[C@@]1(O)[C@H]3Cc4ccc(O)c5c4C1(CCN3CC1CC1)[C@H]2O5 [Compound 4, 17-(cyclopropylmethyl)-6,7-didehydro-4,5α-epoxy-3,14β-dihydroxy-6′,7′-cyclohexeno-1′-methyl-6,7-2′,3′-indolomorphinan] | 3.0 mg/kg | –
9 | C[S+]([O-])c1cccc2c3c([nH]c12)[C@@H]1Oc2c(O)ccc4c2C12CCN(CC1CC1)[C@H](C4)[C@]2(O)C3 (stereo partly drawn) [Compound 2, 17-(cyclopropylmethyl)-6,7-didehydro-4,5α-epoxy-3,14β-dihydroxy-7′-methylsulfinyl-6,7-2′,3′-indolomorphinan] | 1.0 mg/kg | –
